Data published in PMC6760264 (Journal of medicinal chemistry, 2019).

Target: T1, NTMT1 (Homo sapiens, UniProt Q9BV86)
T1 sequence (Q9BV86 1-223): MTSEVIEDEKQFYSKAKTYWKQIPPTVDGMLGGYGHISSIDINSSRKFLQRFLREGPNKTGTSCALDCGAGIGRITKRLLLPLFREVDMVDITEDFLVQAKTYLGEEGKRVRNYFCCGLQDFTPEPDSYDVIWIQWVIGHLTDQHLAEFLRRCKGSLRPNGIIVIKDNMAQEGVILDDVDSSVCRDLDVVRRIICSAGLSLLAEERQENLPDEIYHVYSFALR
Assay: SAHH-coupled fluorescence assay of NTMT1 inhibition
Type: biochemical
Details: at 10 μM

- inhibition against NTMT1: did not show any significant inhibition
SMILES: Nc1ncnc2c1ncn2[C@@H]1O[C@H](CN(CCCN2CCC[C@H]2C(=O)O)CC[C@H](N)C(=O)O)[C@@H](O)[C@H]1O [Compound 14, (3-(((S)-3-Amino-3-carboxypropyl)(((2R,3S,4R,5S)-5-(6-amino-9H-purin-9-yl)-3,4-dihydroxytetrahydrofuran-2-yl)-methyl)amino)propyl)-l-proline]
